Converted amounts (≈) assume the structure as drawn.

For the data set the following is noted: buffer; pH 7.4; 200.0 µM.
`COc1ccc(C(=O)N(c2ccccn2)C2CCCCC2)c(OC)c1`: the solubility (kinetic) is 49.9 µg/mL (≈ 147 µM).
The compound `COc1ccccc1C(=O)Nc1cccc2c1CCCC2` gave a kinetic solubility of less than 0.6 µg/mL.
With `N#Cc1ccsc1NC(=O)c1ccc(Cl)c([N+](=O)[O-])c1` the figure was 2.9 µg/mL (≈ 9.42 µM); with `O=C(O)c1cccc(-n2c(O)c(C=C3N=c4ccccc4=N3)sc2=S)c1`, more than 57.2 µg/mL; with `O=C(O)c1cc([N+](=O)[O-])ccc1NCCCc1ccccc1`, more than 45 µg/mL.
In the case of `O=c1c2cc(NC(=S)N3CCCC3)ccc2nc2n1CCCCC2`, the solubility (kinetic) is 6.1 µg/mL (≈ 17.8 µM).
With `COc1ccc(Cl)cc1NC(=S)N1CCN(S(C)(=O)=O)CC1` the figure was more than 54.6 µg/mL; with `O=C(COC(=O)C1CCC1)NC(=O)c1ccccc1`, more than 39.2 µg/mL; with `CNC(=S)Nc1cccc(-c2cnc3ccccc3n2)c1`, 43.7 µg/mL (≈ 148 µM).
Consider `O=C(NCC(=O)N1CCN(c2ncccn2)CC1)c1ccccc1F`, for which the solubility (kinetic) was more than 51.5 µg/mL.
With `O=C(O)/C=C\C(=O)O.c1ccc(Sc2ccccc2CN2CCCC2)cc1` the figure was more than 57.8 µg/mL.
With `Fc1ccc(NC(=S)N2CCN(c3ccccn3)CC2)cc1Cl` the figure was less than 0.2 µg/mL; with `COc1ccccc1NC(=O)NCC1(N(C)C)CCCCC1`, more than 45.8 µg/mL; with `CC1CCN(C(=O)c2cc(-c3ccc4c(c3)OCO4)on2)CC1`, 28.2 µg/mL (≈ 89.7 µM).
`COc1ccc(NC(=S)Nc2ccc(C)c(Cl)c2)cc1OC` had a solubility (kinetic) of 36.5 µg/mL (≈ 108 µM).
As to `N#Cc1c(F)cccc1N1CCC(C#N)CC1`, the solubility (kinetic) was more than 34.4 µg/mL.
The compound `Cc1cc(C)cc(Nc2ccc3nonc3c2[N+](=O)[O-])c1` displayed a solubility (kinetic) of 1.1 µg/mL (≈ 3.87 µM).
Turning to `O=C(Cc1ccccc1F)Nc1cc(S(=O)(=O)N2CCOCC2)ccc1N1CCCC1`, the solubility (kinetic) was 15.1 µg/mL (≈ 33.7 µM).
With `CCOC(=O)CN1C(=O)S/C(=C/c2ccc(C)o2)C1=O` the figure was 29.2 µg/mL (≈ 98.9 µM); with `Cc1ccc(S(=O)(=O)n2c(C)nc3cc(C)ccc32)cc1`, 32 µg/mL (≈ 107 µM).
`O=C(Nc1nc2cc3c(cc2s1)OCCO3)c1cccs1` had a kinetic solubility of 0.6 µg/mL (≈ 1.88 µM). Compared with the last compound, the solubility kinetic is about 53-fold lower.
With `COc1ccc(OCC(=O)NC2CCCCCCC2)cc1` the figure was 37.7 µg/mL (≈ 129 µM); with `CCOP(=O)(c1ccc(N(C)C)cc1)C(O)c1ccccc1F` (centres undefined), more than 50.6 µg/mL; with `Cc1c(C=O)c2ccccc2n1CCOc1ccccc1F`, less than 0.6 µg/mL.
`Cc1cccc(C)c1NC(=O)N1CCC(C(=O)c2ccc(F)cc2)CC1`: the solubility (kinetic) is 15.4 µg/mL (≈ 43.5 µM).
`S=C(NCc1ccco1)Nc1ccc(Oc2ccc(Cl)cc2)cc1` gave a kinetic solubility of less than 0.4 µg/mL.
Take `Cc1ccc(NC(=O)C(C)SCc2nc3sc4c(c3c(=O)[nH]2)CCCC4)nc1` (centres undefined): the kinetic solubility is 29.4 µg/mL (≈ 70.9 µM).
Take `COc1ccccc1C(=O)C1CCCN(Cc2cnc(C)s2)C1` (centres undefined): the solubility (kinetic) was more than 49.6 µg/mL.
`CCCNC(=O)COC(=O)/C=C/c1ccc(C)o1` had a solubility (kinetic) of more than 37.7 µg/mL.
With `CCOC(=O)c1sc(NC(=O)OC)c(C(=O)OC)c1C` the figure was less than 0.6 µg/mL.
With `CC(OC(=O)/C=C/c1ccccc1)C(=O)NC1CCCCC1C` (centres undefined), the kinetic solubility worked out at 8.4 µg/mL (≈ 26.6 µM).
As for `CC(C)(C)c1ccc(/C=C(\C#N)C(=O)NC2CC2)cc1`, the solubility (kinetic) stood at 3.7 µg/mL (≈ 13.8 µM).
`O=C(COC(=O)/C=C/c1ccc(OC(F)F)cc1)Nc1cccc(S(=O)(=O)N2CCOCC2)c1` returned a kinetic solubility of 7.3 µg/mL (≈ 14.7 µM).
For `COCCn1c(C)cc(C(=O)COc2cccnc2[N+](=O)[O-])c1C`, the solubility (kinetic) was 49.7 µg/mL (≈ 149 µM). Compared with the last compound, the solubility kinetic is about 6.8-fold higher.
With `CC(=O)Nc1cccc(NC(=O)C2C3C=CC(C3)C2C(=O)O)c1` (centres undefined), the solubility (kinetic) was more than 47.2 µg/mL.
With `CC(=O)c1ccc(NC(=O)CN2CCCC2)cc1`, the solubility (kinetic) is more than 36.9 µg/mL.
With `O=S(=O)(Nc1ccccc1)c1ccc2c(c1)CCO2` the figure was 37.7 µg/mL (≈ 137 µM); with `O=C(CCNC(=O)c1ccccc1Cl)Nc1ccncc1`, 44.3 µg/mL (≈ 146 µM).
Consider `O=C1NC(=Nc2ccccc2Cl)S/C1=C\c1cccc([N+](=O)[O-])c1`, for which the solubility (kinetic) came to 4.2 µg/mL (≈ 11.7 µM).
As for `CN1CCN(CC(=O)c2ccccc2F)CC1.O=C(O)C(=O)O`, the solubility (kinetic) was found to be 42.9 µg/mL. This solubility kinetic lies about 10-fold higher than the previous one.
`COC(=O)c1cn(C(=O)c2ccc(OC)c(OC)c2)c2ccccc12` came in with a solubility (kinetic) of 1.2 µg/mL (≈ 3.54 µM).
For the compound `COc1ccc(-c2cc(C(F)(F)F)nc(-n3ccnc3)n2)cc1`, the kinetic solubility came out at 0.6 µg/mL (≈ 1.87 µM). This solubility kinetic is about 2-fold lower than that of the compound before.
In turn, `CCCCCc1c(O)nc(SCCN(C)C)[nH]c1=O.Cl` had a solubility (kinetic) of more than 48.3 µg/mL.
As to `CC(C)c1ccc(Nc2nc(Cl)nc(NCCO)n2)cc1`, the solubility (kinetic) amounted to 2.7 µg/mL (≈ 8.77 µM).
`O=C(NCCc1ccccc1)C1CCN(Cc2cccc3ccccc23)CC1` showed a kinetic solubility of 6.2 µg/mL (≈ 16.6 µM).
Turning to `Cc1ccc(NC(=O)CN2CCN(Cc3ccccc3)CC2)cc1F`, the kinetic solubility was 42.8 µg/mL (≈ 125 µM).
The compound `O=C1c2ccccc2C(=O)C1c1ccccn1` gave a kinetic solubility of 14.2 µg/mL (≈ 63.6 µM).
`COc1ccc(-c2nc3ccccc3c(=O)n2O)cc1`: the solubility (kinetic) is 37.9 µg/mL (≈ 141 µM).
In turn, `Cc1ccc(NC(=O)c2ccc3nc[nH]c3c2)nc1` came in with a solubility (kinetic) of more than 37.8 µg/mL.
With `COc1cc(NC(=O)Cn2c([N+](=O)[O-])cnc2C)c(OC)cc1Cl`, the solubility (kinetic) came to 45.3 µg/mL (≈ 128 µM).
With `O=C(Nc1cccnc1)c1ccc(Cl)c(Cl)c1` the figure was 40 µg/mL (≈ 150 µM).
Compound `COc1ccc(Nc2nc(N)c(C(=O)c3ccc(OC)cc3)s2)cc1` displayed a solubility (kinetic) of 1.4 µg/mL (≈ 3.94 µM).
With `CC1CCN(CCn2c(=S)[nH]c3cc4c(cc3c2=O)OCO4)CC1` the figure was 29.4 µg/mL (≈ 84.6 µM); with `O=C(CN1CCOCC1)Nc1ccc2c(c1)CCC2`, more than 39.1 µg/mL.
As to `Cc1ccn2c(NC3CCCC3)c(-c3ccncc3)nc2c1`, the kinetic solubility was 35.3 µg/mL (≈ 121 µM).
Consider `O=C(NC(=S)N1CCCCCC1)c1ccccc1Cl`, for which the solubility (kinetic) is more than 44.5 µg/mL.
With `Cc1c(C)n(Cc2ccccc2)c2ncnc(NCCO)c12` the figure was 41.2 µg/mL (≈ 139 µM).
In the case of `COc1ccc(CC(=O)Oc2ccccc2[N+](=O)[O-])cc1`, the solubility (kinetic) is 14.2 µg/mL (≈ 49.4 µM).
`COc1c(F)c(F)cc2c(=O)c(C(=O)O)cn(C3CC3)c12` yielded a solubility (kinetic) of more than 44.3 µg/mL.
Turning to `O=S(=O)(c1ccc(Cl)cc1)N1CCC2(CC1)OCCO2`, the kinetic solubility was more than 47.7 µg/mL.
With `O=C(Nc1ccc(OC(F)F)cc1)c1ccccn1` the figure was 31.5 µg/mL (≈ 119 µM); with `COc1ccc(C(=O)NCC(=O)OCC(=O)NC23CC4CC(CC(C4)C2)C3)cc1`, more than 60.1 µg/mL.
For the compound `C#CCOc1ccccc1C(N)=O`, the solubility (kinetic) was determined as 25.3 µg/mL (≈ 144 µM).
Take `Cc1ccc(NC(=O)O/N=C/c2ccc(N(C)C)cc2)cc1`: the kinetic solubility amounted to 1.1 µg/mL (≈ 3.7 µM).
The compound `CC1(c2ccc3noc(-c4cccc(F)c4)c3c2)OCCO1` yielded a solubility (kinetic) of less than 0.6 µg/mL.
For `O=C(CNS(=O)(=O)c1ccc(F)cc1)Nc1ccccc1`, the kinetic solubility stood at 44.1 µg/mL (≈ 143 µM).
For the compound `CCOC(=O)c1sc(-c2cccc(C(F)(F)F)c2)nc1O`, the solubility (kinetic) was 36.5 µg/mL (≈ 115 µM).
For `COc1ccc(OC(=O)c2cnc3n(c2=O)CCS3)cc1`, the kinetic solubility is 35 µg/mL (≈ 115 µM).
`CCOC(=O)c1ccc(NC(C)=O)c([N+](=O)[O-])c1` yielded a solubility (kinetic) of more than 37.8 µg/mL.
In turn, `COc1ccc(C(=O)CSc2nccn2C)c(OC)c1` displayed a solubility (kinetic) of more than 43.9 µg/mL.
On to `O=C(Nc1ccc2c(c1)OCO2)C1CC(c2ccccc2O)=NO1` (centres undefined), for which the solubility (kinetic) turned out to be 1.4 µg/mL (≈ 4.29 µM).
`O=S(=O)(c1ccccc1)N1CCN(c2cccc(Cl)c2)CC1` yielded a kinetic solubility of 3.8 µg/mL (≈ 11.3 µM).
Regarding `CCOc1ccccc1C(=O)Nc1c[nH]c(=O)[nH]c1=O`, the solubility (kinetic) is 2.4 µg/mL (≈ 8.72 µM). This solubility kinetic lies about 1.6-fold lower than the previous one.
Take `CCc1nc2ccc(C(=O)Nc3ccc4c(c3)OCO4)cc2nc1CC`: the kinetic solubility stood at 1.6 µg/mL (≈ 4.58 µM).

As a reminder, the kinetic solubility is the concentration staying in solution when a stock, usually in DMSO, is diluted into the medium.

Source of the values: PubChem BioAssay AID1996.
